Assay results as given in ChEMBL document CHEMBL1909046, “DrugMatrix in vitro pharmacology data”.

target: T1, Alpha-1D adrenergic receptor (Homo sapiens, UniProt P25100); assay: not given; format: cell membranes, HEK293, Membrane; settings: hek293; also: in other assays of this panel Not Active means under 50% inhibition at 10 µM
T1 sequence (P25100 whole entry): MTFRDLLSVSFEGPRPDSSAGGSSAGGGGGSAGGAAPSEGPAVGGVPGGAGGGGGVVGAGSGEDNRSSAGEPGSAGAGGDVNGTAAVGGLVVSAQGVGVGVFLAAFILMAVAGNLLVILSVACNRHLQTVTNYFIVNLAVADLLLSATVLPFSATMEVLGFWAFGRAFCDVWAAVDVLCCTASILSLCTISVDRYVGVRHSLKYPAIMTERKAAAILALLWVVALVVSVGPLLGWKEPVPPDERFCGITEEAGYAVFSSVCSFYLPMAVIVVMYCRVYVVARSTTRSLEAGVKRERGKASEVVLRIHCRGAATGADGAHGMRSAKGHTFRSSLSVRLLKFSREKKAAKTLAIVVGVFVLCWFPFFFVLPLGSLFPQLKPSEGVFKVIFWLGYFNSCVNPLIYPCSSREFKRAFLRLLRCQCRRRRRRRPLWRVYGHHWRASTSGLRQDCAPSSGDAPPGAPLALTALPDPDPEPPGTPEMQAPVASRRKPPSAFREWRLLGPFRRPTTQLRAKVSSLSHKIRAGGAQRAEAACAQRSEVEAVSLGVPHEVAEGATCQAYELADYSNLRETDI

| Compound | IC50 |
| --- | --- |
| CCc1ccc(C(=O)C(C)CN2CCCCC2)cc1 (stereo unspecified) [EPERISONE] | Not Active |
| C/C=C1\[C@H]2C=C(C)C[C@]1(N)c1ccc(=O)[nH]c1C2 [HUPERZINE A] | Not Active |
| CC1COc2c(N3CCN(C)CC3)c(F)cc3c(=O)c(C(=O)O)cn1c23 (stereo unspecified) [OFLOXACIN] | Not Active |

test system: not listed separately; assay: DRUGMATRIX: Calcium Channel Type L, Phenylalkylamine radioligand binding (ligand: [3H] (-)-Desmethoxyverapamil (D-888)); format: cell membranes, Rattus norvegicus, Wistar, Brain, Membrane; settings: Not Active = under 50% inhibition at 10 µM

| Compound | IC50 | Ki |
| --- | --- | --- |
| CCc1ccc(C(=O)C(C)CN2CCCCC2)cc1 (stereo unspecified) [EPERISONE] | Not Active | Not Active |
| C/C=C1\[C@H]2C=C(C)C[C@]1(N)c1ccc(=O)[nH]c1C2 [HUPERZINE A] | Not Active | Not Active |
| CC1COc2c(N3CCN(C)CC3)c(F)cc3c(=O)c(C(=O)O)cn1c23 (stereo unspecified) [OFLOXACIN] | Not Active | Not Active |

target: Prostaglandin G/H synthase 1 (Homo sapiens, UniProt P23219); assay: biochemical; format: tissue-based, Platelet; settings: platelet;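 also: inhibition of COX-1 enzyme activity, with arachidonic acid supplied as substrate; in other assays of this panel Not Active means under 50% inhibition at 10 µM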
Sequence (P23219 whole entry): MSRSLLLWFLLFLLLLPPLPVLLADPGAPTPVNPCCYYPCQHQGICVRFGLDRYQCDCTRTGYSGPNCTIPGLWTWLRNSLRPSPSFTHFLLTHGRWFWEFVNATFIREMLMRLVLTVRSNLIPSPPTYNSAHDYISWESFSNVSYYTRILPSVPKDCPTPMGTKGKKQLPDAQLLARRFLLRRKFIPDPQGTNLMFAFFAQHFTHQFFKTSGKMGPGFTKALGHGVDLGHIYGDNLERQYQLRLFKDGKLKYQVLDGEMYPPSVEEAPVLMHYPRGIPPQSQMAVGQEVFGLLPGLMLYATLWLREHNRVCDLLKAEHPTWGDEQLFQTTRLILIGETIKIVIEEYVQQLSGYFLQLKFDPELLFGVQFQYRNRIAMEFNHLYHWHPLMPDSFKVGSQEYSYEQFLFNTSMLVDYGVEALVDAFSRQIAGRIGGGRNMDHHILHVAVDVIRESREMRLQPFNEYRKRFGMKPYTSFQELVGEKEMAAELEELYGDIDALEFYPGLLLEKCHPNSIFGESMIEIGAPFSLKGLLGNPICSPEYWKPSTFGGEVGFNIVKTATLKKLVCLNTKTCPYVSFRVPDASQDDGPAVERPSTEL

| Compound | IC50 |
| --- | --- |
| CCc1ccc(C(=O)C(C)CN2CCCCC2)cc1 (stereo unspecified) [EPERISONE] | Not Active |
| C/C=C1\[C@H]2C=C(C)C[C@]1(N)c1ccc(=O)[nH]c1C2 [HUPERZINE A] | Not Active |
| CC1COc2c(N3CCN(C)CC3)c(F)cc3c(=O)c(C(=O)O)cn1c23 (stereo unspecified) [OFLOXACIN] | Not Active |

target: D(3) dopamine receptor (Homo sapiens, UniProt P35462); assay: DRUGMATRIX: Dopamine D3 radioligand binding (ligand: [3H] Spiperone); format: cell membranes, CHO, Membrane; settings: cho
Sequence (P35462 whole entry): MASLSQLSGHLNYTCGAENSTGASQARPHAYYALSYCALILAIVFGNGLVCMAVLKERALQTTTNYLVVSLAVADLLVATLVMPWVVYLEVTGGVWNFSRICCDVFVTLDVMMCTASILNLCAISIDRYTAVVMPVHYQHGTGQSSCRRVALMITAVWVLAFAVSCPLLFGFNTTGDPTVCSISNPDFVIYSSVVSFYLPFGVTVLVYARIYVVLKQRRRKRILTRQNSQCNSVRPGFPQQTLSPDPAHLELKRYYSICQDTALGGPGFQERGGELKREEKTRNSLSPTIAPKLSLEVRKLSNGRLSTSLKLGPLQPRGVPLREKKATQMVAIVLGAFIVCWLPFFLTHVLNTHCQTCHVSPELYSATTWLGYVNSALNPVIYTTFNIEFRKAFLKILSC

| Compound | IC50 |
| --- | --- |
| CCc1ccc(C(=O)C(C)CN2CCCCC2)cc1 (stereo unspecified) [EPERISONE] | Not Active |
| C/C=C1\[C@H]2C=C(C)C[C@]1(N)c1ccc(=O)[nH]c1C2 [HUPERZINE A] | Not Active |
| CC1COc2c(N3CCN(C)CC3)c(F)cc3c(=O)c(C(=O)O)cn1c23 (stereo unspecified) [OFLOXACIN] | Not Active |

test system: not listed separately; assay: DRUGMATRIX: Glutamate, NMDA, Agonism radioligand binding (ligand: [3H] CGP-39653); format: cell membranes, Rattus norvegicus, Wistar, Cerebral cortex, Membrane; settings: Not Active = under 50% inhibition at 10 µM

| Compound | IC50 | Ki |
| --- | --- | --- |
| CCc1ccc(C(=O)C(C)CN2CCCCC2)cc1 (stereo unspecified) [EPERISONE] | Not Active | Not Active |
| C/C=C1\[C@H]2C=C(C)C[C@]1(N)c1ccc(=O)[nH]c1C2 [HUPERZINE A] | Not Active | Not Active |
| CC1COc2c(N3CCN(C)CC3)c(F)cc3c(=O)c(C(=O)O)cn1c23 (stereo unspecified) [OFLOXACIN] | Not Active | Not Active |

test system: not listed separately; assay: DRUGMATRIX: Glutamate, NMDA, Phencyclidine radioligand binding (ligand: [3H] TCP); format: cell membranes, Rattus norvegicus, Wistar, Cerebral cortex, Membrane; settings: Not Active = under 50% inhibition at 10 µM

| Compound | IC50 | Ki |
| --- | --- | --- |
| CCc1ccc(C(=O)C(C)CN2CCCCC2)cc1 (stereo unspecified) [EPERISONE] | Not Active | Not Active |
| C/C=C1\[C@H]2C=C(C)C[C@]1(N)c1ccc(=O)[nH]c1C2 [HUPERZINE A] | Not Active | Not Active |
| CC1COc2c(N3CCN(C)CC3)c(F)cc3c(=O)c(C(=O)O)cn1c23 (stereo unspecified) [OFLOXACIN] | Not Active | Not Active |

target: T2, 3-hydroxy-3-methylglutaryl-coenzyme A reductase (Homo sapiens, UniProt P04035); assay: not given; design: species or system Escherichia coli; settings: not given;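 also: enzyme inhibition assay of HMG-CoA reductase using radiolabeled [14C]HMG-CoA as substrate; in other assays of this panel Not Active means under 50% inhibition at 10 µM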
T2 sequence (P04035 whole entry): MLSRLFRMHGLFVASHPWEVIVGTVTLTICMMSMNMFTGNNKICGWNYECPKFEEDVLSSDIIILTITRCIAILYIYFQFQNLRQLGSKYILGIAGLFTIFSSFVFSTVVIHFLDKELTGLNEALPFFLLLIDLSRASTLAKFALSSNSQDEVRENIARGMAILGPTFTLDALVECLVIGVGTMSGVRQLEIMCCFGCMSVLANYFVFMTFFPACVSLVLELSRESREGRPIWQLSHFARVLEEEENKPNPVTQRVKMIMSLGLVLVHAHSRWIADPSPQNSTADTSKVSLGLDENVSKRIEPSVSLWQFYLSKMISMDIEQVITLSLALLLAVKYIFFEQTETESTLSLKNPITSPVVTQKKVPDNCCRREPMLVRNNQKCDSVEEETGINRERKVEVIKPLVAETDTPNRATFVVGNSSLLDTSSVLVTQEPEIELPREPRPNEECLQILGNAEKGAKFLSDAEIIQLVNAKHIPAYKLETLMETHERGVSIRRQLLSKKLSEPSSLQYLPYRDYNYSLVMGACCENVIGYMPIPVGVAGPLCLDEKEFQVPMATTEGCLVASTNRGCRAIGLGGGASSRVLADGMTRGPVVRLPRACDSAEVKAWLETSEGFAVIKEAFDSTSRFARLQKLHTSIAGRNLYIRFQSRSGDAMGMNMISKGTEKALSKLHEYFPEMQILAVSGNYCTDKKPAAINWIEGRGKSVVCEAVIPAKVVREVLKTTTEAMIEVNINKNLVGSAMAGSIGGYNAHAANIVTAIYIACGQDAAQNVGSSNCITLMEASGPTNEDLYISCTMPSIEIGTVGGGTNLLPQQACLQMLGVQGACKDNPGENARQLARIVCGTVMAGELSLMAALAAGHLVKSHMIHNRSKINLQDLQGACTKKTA

| Compound | IC50 |
| --- | --- |
| CCc1ccc(C(=O)C(C)CN2CCCCC2)cc1 (stereo unspecified) [EPERISONE] | Not Active |
| C/C=C1\[C@H]2C=C(C)C[C@]1(N)c1ccc(=O)[nH]c1C2 [HUPERZINE A] | Not Active |
| CC1COc2c(N3CCN(C)CC3)c(F)cc3c(=O)c(C(=O)O)cn1c23 (stereo unspecified) [OFLOXACIN] | Not Active |

target: Melanocortin receptor 3 (Homo sapiens, UniProt P41968); assay: not given; format: cell membranes, Membrane; settings: hek293; also: in other assays of this panel Not Active means under 50% inhibition at 10 µM
Sequence (P41968 whole entry): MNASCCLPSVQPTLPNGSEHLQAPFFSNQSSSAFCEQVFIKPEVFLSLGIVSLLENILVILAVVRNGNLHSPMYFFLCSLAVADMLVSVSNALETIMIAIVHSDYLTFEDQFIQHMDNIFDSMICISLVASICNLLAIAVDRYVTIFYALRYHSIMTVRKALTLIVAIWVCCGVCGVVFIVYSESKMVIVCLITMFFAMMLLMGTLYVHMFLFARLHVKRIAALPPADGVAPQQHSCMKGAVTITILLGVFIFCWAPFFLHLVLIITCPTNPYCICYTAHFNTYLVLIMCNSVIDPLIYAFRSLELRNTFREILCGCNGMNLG

| Compound | IC50 |
| --- | --- |
| CCc1ccc(C(=O)C(C)CN2CCCCC2)cc1 (stereo unspecified) [EPERISONE] | Not Active |
| C/C=C1\[C@H]2C=C(C)C[C@]1(N)c1ccc(=O)[nH]c1C2 [HUPERZINE A] | Not Active |
| CC1COc2c(N3CCN(C)CC3)c(F)cc3c(=O)c(C(=O)O)cn1c23 (stereo unspecified) [OFLOXACIN] | Not Active |

test system: not listed separately; assay: DRUGMATRIX: Phosphodiesterase PDE4 enzyme inhibition (substrate: [3H]cAMP + cAMP); settings: u-937; Not Active = under 50% inhibition at 10 µM

| Compound | IC50 | Ki |
| --- | --- | --- |
| CCc1ccc(C(=O)C(C)CN2CCCCC2)cc1 (stereo unspecified) [EPERISONE] | Not Active | Not Active |
| C/C=C1\[C@H]2C=C(C)C[C@]1(N)c1ccc(=O)[nH]c1C2 [HUPERZINE A] | Not Active | Not Active |
| CC1COc2c(N3CCN(C)CC3)c(F)cc3c(=O)c(C(=O)O)cn1c23 (stereo unspecified) [OFLOXACIN] | Not Active | Not Active |

target: Platelet-activating factor receptor (Homo sapiens, UniProt P25105); assay: biochemical; format: tissue-based; settings: platelet; also: in other assays of this panel Not Active means under 50% inhibition at 10 µM
Sequence (P25105 whole entry): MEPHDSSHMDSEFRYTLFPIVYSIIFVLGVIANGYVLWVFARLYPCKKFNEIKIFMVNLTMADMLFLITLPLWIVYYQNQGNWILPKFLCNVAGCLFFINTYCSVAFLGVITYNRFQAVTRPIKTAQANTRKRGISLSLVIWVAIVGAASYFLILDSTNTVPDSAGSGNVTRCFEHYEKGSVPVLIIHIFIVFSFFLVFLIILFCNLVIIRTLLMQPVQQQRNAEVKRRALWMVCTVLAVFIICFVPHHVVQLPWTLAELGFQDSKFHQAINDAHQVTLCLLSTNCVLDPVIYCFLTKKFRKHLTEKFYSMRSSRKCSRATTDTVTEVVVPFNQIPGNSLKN

| Compound | IC50 |
| --- | --- |
| CCc1ccc(C(=O)C(C)CN2CCCCC2)cc1 (stereo unspecified) [EPERISONE] | Not Active |
| C/C=C1\[C@H]2C=C(C)C[C@]1(N)c1ccc(=O)[nH]c1C2 [HUPERZINE A] | Not Active |
| CC1COc2c(N3CCN(C)CC3)c(F)cc3c(=O)c(C(=O)O)cn1c23 (stereo unspecified) [OFLOXACIN] | Not Active |

target: T3, Interstitial collagenase (Homo sapiens, UniProt P03956); assay: not given; format: tissue-based, Rheumatoid synovial fibroblasts; settings: not given
T3 sequence (P03956 whole entry): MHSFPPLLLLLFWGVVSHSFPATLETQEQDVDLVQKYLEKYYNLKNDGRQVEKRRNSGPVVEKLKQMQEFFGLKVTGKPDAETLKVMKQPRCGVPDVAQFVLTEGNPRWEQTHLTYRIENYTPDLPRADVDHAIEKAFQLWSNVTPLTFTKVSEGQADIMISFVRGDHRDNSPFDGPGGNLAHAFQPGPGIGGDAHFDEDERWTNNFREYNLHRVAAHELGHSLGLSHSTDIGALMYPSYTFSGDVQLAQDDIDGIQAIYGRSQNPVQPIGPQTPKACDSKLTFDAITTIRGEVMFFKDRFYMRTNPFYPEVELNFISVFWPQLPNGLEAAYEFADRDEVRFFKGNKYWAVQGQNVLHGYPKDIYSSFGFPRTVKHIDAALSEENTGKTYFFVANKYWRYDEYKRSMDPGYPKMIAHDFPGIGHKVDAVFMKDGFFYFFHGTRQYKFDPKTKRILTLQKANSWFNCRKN

| Compound | IC50 |
| --- | --- |
| CCc1ccc(C(=O)C(C)CN2CCCCC2)cc1 (stereo unspecified) [EPERISONE] | Not Active |
| C/C=C1\[C@H]2C=C(C)C[C@]1(N)c1ccc(=O)[nH]c1C2 [HUPERZINE A] | Not Active |
| CC1COc2c(N3CCN(C)CC3)c(F)cc3c(=O)c(C(=O)O)cn1c23 (stereo unspecified) [OFLOXACIN] | Not Active |

target: Mitogen-activated protein kinase 1 (Homo sapiens, UniProt P28482); assay: DRUGMATRIX: Protein Serine/Threonine Kinase, ERK2 enzyme inhibition (substrate: Myelin Basic Protein); design: species or system Escherichia coli; settings: Not Active = under 50% inhibition at 10 µM
Sequence (P28482 whole entry): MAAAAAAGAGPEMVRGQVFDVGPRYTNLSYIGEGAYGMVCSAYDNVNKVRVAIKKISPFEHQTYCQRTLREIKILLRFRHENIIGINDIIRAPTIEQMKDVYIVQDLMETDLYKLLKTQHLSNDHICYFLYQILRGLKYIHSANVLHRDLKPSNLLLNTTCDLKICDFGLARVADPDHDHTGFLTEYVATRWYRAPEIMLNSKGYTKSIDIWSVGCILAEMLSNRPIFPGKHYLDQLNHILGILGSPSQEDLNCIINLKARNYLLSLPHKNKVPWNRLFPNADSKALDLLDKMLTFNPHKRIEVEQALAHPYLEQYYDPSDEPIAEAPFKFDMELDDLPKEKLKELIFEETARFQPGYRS

| Compound | IC50 |
| --- | --- |
| CCc1ccc(C(=O)C(C)CN2CCCCC2)cc1 (stereo unspecified) [EPERISONE] | Not Active |
| C/C=C1\[C@H]2C=C(C)C[C@]1(N)c1ccc(=O)[nH]c1C2 [HUPERZINE A] | Not Active |
| CC1COc2c(N3CCN(C)CC3)c(F)cc3c(=O)c(C(=O)O)cn1c23 (stereo unspecified) [OFLOXACIN] | Not Active |

target: T4, Adenosine receptor A1 (Homo sapiens, UniProt P30542); assay: not given; format: cell membranes, CHO, Membrane; settings: cho
T4 sequence (P30542 whole entry): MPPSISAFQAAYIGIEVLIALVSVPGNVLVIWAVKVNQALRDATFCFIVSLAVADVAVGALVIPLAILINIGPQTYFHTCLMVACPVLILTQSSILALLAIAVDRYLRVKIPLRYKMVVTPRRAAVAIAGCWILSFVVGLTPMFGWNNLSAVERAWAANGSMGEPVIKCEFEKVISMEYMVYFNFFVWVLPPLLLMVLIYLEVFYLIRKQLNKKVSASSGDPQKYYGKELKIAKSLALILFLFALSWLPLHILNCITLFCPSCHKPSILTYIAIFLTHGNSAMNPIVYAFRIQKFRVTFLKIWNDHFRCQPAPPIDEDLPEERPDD

| Compound | IC50 |
| --- | --- |
| CCc1ccc(C(=O)C(C)CN2CCCCC2)cc1 (stereo unspecified) [EPERISONE] | Not Active |
| C/C=C1\[C@H]2C=C(C)C[C@]1(N)c1ccc(=O)[nH]c1C2 [HUPERZINE A] | Not Active |
| CC1COc2c(N3CCN(C)CC3)c(F)cc3c(=O)c(C(=O)O)cn1c23 (stereo unspecified) [OFLOXACIN] | Not Active |
